This note sets out measurements from publication PMC9137037 (Frontiers in Oncology, 2022).

Where no end group is shown, it is not given here.

Data set [1] concerns CT26 colon carcinoma cells. As to the kind of experiment: CT26 tumor challenge in immunized syngeneic BALB/c mice. It is filed as in vivo, mouse. Here is the method:
The peptide vaccine MVF-PD-1(92-110) was dissolved in sterile water and mixed with either ISA 720 or ISA 51 (1:1) ratio. We utilized the well-established murine colon carcinoma cell line CT26 tumor model in syngeneic BALB/c mice to evaluate the effects of vaccination previously described ([23]). Briefly, 6–8-week-old female BALB/c mice were immunized with the peptide vaccine, and 2 weeks after the third immunization, the mice were challenged with 1×10^5 CT26 colon cancer cells by subcutaneous injection (SC). The CT26 cancer cell line was maintained in the DMEM medium with 10% FBS 5% CO2 at 37 °C. Phosphate-buffered saline (PBS)-treated mice were set as negative control, while the positive control group mice were treated with an anti-mouse PD-1 monoclonal antibody (clone 29F.1A12; Bio X Cell, West Lebanon, NH, USA) with 200 μg/dose per mouse. Blood was collected biweekly after the primary immunization until 2 weeks after the third immunization. Tumor growth was monitored daily, especially 7 days after the tumor challenge. The mice were euthanized at the end of treatment, and the tumors were extracted and weighed.
The mice in PBS and mAb (29F.1A12) groups, n = 10; group 1 to group 7, n = 8, group 8 n = 7 (one mouse was lost due to a non-immunization related reason before the challenge).
The mice challenged with CT26 tumor cells were monitored at least twice per week and tumor sizes were measured by calipers. The formula, volume (LWW) = (length × width × width)/2, was used to calculate tumor volumes. All values are shown as means ± standard deviation. Data statistical analysis was performed by GraphPad Prism 8.1.2 (GraphPad Software, Inc. San Diego, CA, USA) and the indicated statistical analysis. The percentage of tumor growth inhibition (%TGI) was defined as the difference between the median tumor volume (MTV) of the treatment group with the PBS control group, and the value was calculated by the following formula: %TGI=100*(MTV control − MTV test)/MTV control. The percentage of complete response (CR) was defined as the tumor volume equal to or less than 50 mm^3 for at least 3 consecutive measurements during the study. The log-rank (Mantel−Cox) test was used to compare the percentage of CR in multiple groups. Student’s t-test was used to analyze the difference between the two groups. One-way analysis of variance (one-way ANOVA) followed by the Tukey’s multiple comparison test were used to compare data in multiple groups or data between groups in multiple groups, and the two-way ANOVA was used to analyze the whole curve comparison. The log-rank (Mantel−Cox) test was use to compare the survival curves. A p-value or an adjusted p-value less than 0.05 was accepted as a statistically significant difference.
To verify and confirm the previous immunogenicity studies and antitumor activities of PD-1(92-110) ([23]), 6–8-week-old BALB/c mice were vaccinated with MVF-PD-1(92-110) every 2- or 3- week intervals. Peptide cancer vaccine (100 μg) mixed with ISA 720 (1:1) or ISA 51 (1:1) or nor-MDP 33 μg were used per mice. Mice were boosted with the designed doses of vaccine every 2- or 3-week intervals for a total of 3 vaccine shots. Blood was collected weekly for monitoring antibody titers. After 2 weeks of the third immunization (3Y), mice were challenged with CT26 colon carcinoma cells for 1×10^5 cells per mouse. The tumor growths were monitored and checked daily, especially 7 days post-challenge, and the tumor size was measured with calipers ( Figure 1A ). For the positive control group, we treated the mice with an anti-mouse PD-1 antibody (clone 29F.1A12) twice a week for up to three weeks, while the negative control group was treated with PBS. The mice CT26 tumor model study was separated into 10 different groups, post-challenge treated with PBS as the negative control group or an anti-mouse PD-1 antibody (clone 29F.1A12) as positive control group ( Figure 1B ). Group 1 to group 8 comprised the peptide vaccine treatment groups. […]

The next data set concerns cynomolgus monkeys. The data set can be described thus: GLP repeat-dose toxicology, first monkey study No.00213515. It is filed as in vivo, Macaca fascicularis. Here is the method:
The non-human primate studies were carried out by the Charles River Laboratories (Ashland, OH USA). All the cynomolgus monkeys (Macaca fascicularis of Chinese origin) were obtained from Charles River Laboratories (Houston, TX, USA). In brief, the animals were approximately 2–4 years old and at the body weight between 2.2 and 3.1 kg at the initial dosing. The animals were kept at the temperature between 19°C and 24°C, humidity 30%–70%, and with 12 h light and 12 h dark light cycle. The Good manufacturing practice (GMP)-manufactured vaccine was used in the non-human primate study. […] Similar to mouse and dog dosing preparation, after the emulsion was prepared, a drop test was performed on each time of dosing to confirm that the emulsion had been prepared properly. […] The dose volume was split approximately equally across two different sites; 0.5 ml of the dose was intramuscularly (IM) injected into the right posterior lateral thigh, the left dosing was injected into the left site. All the animals’ body weights were monitored weekly after receiving. After each immunization, the animal body temperature was tested 6 and 24 h post each immunization. […] The animal bleed were collected before each time of immunization to monitor the antibody titers. There were two sets of non-human primate studies conducted. The first set of monkey study No.00213515 had 24 monkeys, 12 males, and 12 females divided into 4 groups: vehicle control, low dose 0.5 mg, medium dose 2 mg, and high dose 5 mg. There were 16 monkeys (8 males and 8 females) in the second set of monkey study No. 00213519. The monkeys in the four groups were vaccinated as follows: vehicle control, low dose 25 μg, medium dose 100 μg, and high dose 250 μg.
In the non-human primate study (#00213515), 24 non-human primates, cynomolgus monkeys, were used. The monkeys were immunized four times (1Y, 2Y, 3Y, and 4Y at days 1, 15, 29, and 43, respectively). Sera were collected at day 1 (pre), day 43, and day 59 ( Figure 4A ). There were four groups and 6 monkeys in each group. Group 1 was the control group, which was treated with only ISA 720 and ddwater. Groups 2, 3, and 4 were peptide PD-1Vaxx treatment groups and were treated with low-dose 0.5 mg/dose, medium-dose […], or high-dose […] peptide vaccine, respectively ( Figure 4B ), emulsified in ISA 720.
These observations were first noted beginning after the second or third dose and were more frequent in female monkeys compared to male monkeys. • b) After the recovery period, all APi2568-related clinical observations had either recovered or were in the process of recovering, with the exception of swollen hind limbs.

Regarding “KLLSLIKGVIVHRLEGVEGPSLGAISLAPKAQIKESLRAEL [MVF-PD-1(92-110)]”, the “percentage of complete response (CR)” value in data set [1] (CR = tumor volume ≤50 mm^3 for at least 3 consecutive measurements, combined immunized groups vs PBS and mAb 29F.1A12, log-rank) was “higher percentage of complete response”. Moreover, in data set [1] (mouse, CT26, Figures 2G, H), the “tumor burden vs PBS and vs 29F.1A12 (summary)” value is “PD-1(92) significant less tumor burden vs. PBS, no difference vs. 29F.1A12 ( Figures 2G, H );”. In data set [1] (mouse, CT26, Figures 2G-I), the “2-week vs. 3-week immunization interval (summary)” value is listed as 2-week vs. 3-week no difference ( Figures 2G-I );, the “ISA 720 vs ISA 51 (summary)” value is listed as “ISA 720 vs ISA 51 no difference ( Figures 2G-I );” and the “No nor-MDP vs nor-MDP (summary)” value was “No nor-MDP vs nor-MDP no difference ( Figures 2G-I );”. Also, the “tumor size (LWW) versus the PBS group” value in data set [1] (two-way ANOVA of whole-curve comparison, p-value less than 0.01, majority of the mice) is “significantly inhibited”. Further, in the data set with cynomolgus monkeys (0.5, 2, 5 mg/dose IM as PD1-Vaxx, male and female cynomolgus monkeys), the “no-observed-adverse-effect level (NOAEL)” value is given as “could not be determined”. The “clinical findings at or near the IM site of dose administration” value in the data set on cynomolgus monkeys (0.5, 2, and 5 mg/dose groups, first noted after second or third dose, more frequent in females) is given as “adverse swelling, ulceration, and/or abscess formation”. For the same sequence, the “induction of autoimmune responses” value with cynomolgus monkeys (cynomolgus monkeys) was “has not been observed”. The “safety (summary)” value in the data set on cynomolgus monkeys (monkey 1st set) is listed as “safe”.
